Experimental data from ChEMBL document CHEMBL5537127, “Design and synthesis of novel hederagonic acid analogs as potent anti-inflammatory compounds capable of protecting against LPS-induced acute lung injury” (Eur J Med Chem, 2024).
Active and inactive are the calls of the source. The calls are words filed in the database; no cut-off is given here.

How the values were obtained:
RAW264.7 [1] = experiment: Anti-inflammatory activity against LPS-induced mouse RAW264.7 cells assessed as inhibition of p65 nuclear translocation preincubated for 2 hrs followed by LPS addition and measured after 2 hrs by FITC/DAPI staining based laser confocal microscopy analysis; format: functional, cell-based; details: time 4.0 hrs
RAW264.7 [2] = experiment: Anti-inflammatory activity against LPS-induced mouse RAW264.7 cells assessed as inhibition of IRF3 nuclear translocation preincubated for 2 hrs followed by LPS addition and measured after 2 hrs by FITC/DAPI staining based laser confocal microscopy analysis; format: functional, cell-based; details: time 4.0 hrs
RAW264.7 [3] = experiment: Anti-inflammatory activity against LPS-induced mouse RAW264.7 cells assessed as decrease in IL-6 expression preincubated for 2 hrs followed by LPS addition and measured after 12 hrs by ELISA; format: functional, cell-based; details: time 14.0 hrs
RAW264.7 [4] = experiment: Anti-inflammatory activity against LPS-induced mouse RAW264.7 cells assessed as decrease in TNF-alpha expression preincubated for 2 hrs followed by LPS addition and measured after 12 hrs by ELISA; format: functional, cell-based; details: time 14.0 hrs
RAW264.7 [5] = experiment: Anti-inflammatory activity against LPS-induced mouse RAW264.7 cells assessed as decrease in IFN-beta expression preincubated for 2 hrs followed by LPS addition and measured after 12 hrs by ELISA; format: functional, cell-based; details: time 14.0 hrs
RAW264.7 [6] = experiment: Anti-inflammatory activity against LPS-induced mouse RAW264.7 cells assessed as decrease in TBK1 phosphorylation at 1 uM by Western blotting analysis; format: functional, cell-based
RAW264.7 [7] = experiment: Anti-inflammatory activity against LPS-induced mouse RAW264.7 cells assessed as decrease in IRF3 phosphorylation at 1 uM by Western blotting analysis; format: functional, cell-based
RAW264.7 [8] = experiment: Anti-inflammatory activity against LPS-induced mouse RAW264.7 cells assessed as decrease in p65 phosphorylation at 1 uM by Western blotting analysis; format: functional, cell-based
RAW264.7 [9] = experiment: Anti-inflammatory activity against LPS-induced mouse RAW264.7 cells assessed as decrease in IkappaB phosphorylation at 1 uM by Western blotting analysis; format: functional, cell-based
RAW264.7 [10] = experiment: Anti-inflammatory activity against LPS-induced mouse RAW264.7 cells assessed as decrease in STING protein level at 1 uM by Western blotting analysis; format: functional, cell-based
Mus musculus [11] = experiment: Anti-inflammatory activity against LPS-stimulated BALB/c mouse acute lung injury model assessed as decrease in STING expression at 2.5 mg/kg, po administered for 3 days by Western blotting analysis; format: functional, organism-based; details: time 3.0 day
Mus musculus [12] = experiment: Anti-inflammatory activity against LPS-stimulated BALB/c mouse acute lung injury model assessed as decrease in TBK1 phosphorylation at 2.5 mg/kg, po administered for 3 days by Western blotting analysis; format: functional, organism-based; details: time 3.0 day
Mus musculus [13] = experiment: Anti-inflammatory activity against LPS-stimulated BALB/c mouse acute lung injury model assessed as decrease in IRF3 phosphorylation at 2.5 mg/kg, po administered for 3 days by Western blotting analysis; format: functional, organism-based; details: time 3.0 day
Mus musculus [14] = experiment: Anti-inflammatory activity against LPS-stimulated BALB/c mouse acute lung injury model assessed as decrease in p65 phosphorylation at 2.5 mg/kg, po administered for 3 days by Western blotting analysis; format: functional, organism-based; details: time 3.0 day
Mus musculus [15] = experiment: Anti-inflammatory activity against LPS-stimulated BALB/c mouse acute lung injury model assessed as decrease in IkappaB phosphorylation at 2.5 mg/kg, po administered for 3 days by Western blotting analysis; format: functional, organism-based; details: time 3.0 day
Mus musculus [16] = experiment: Antiinflammatory activity against TPA-induced mouse ear edema model assessed as reduction in ear edema at 40 mg/kg, po administered for 7 consecutive days; format: functional; set-up: scale not given: the % may be the effect or the level left; details: time 7 day

Row | SMILES | Activity (RAW264.7 [1]) | Activity (RAW264.7 [2]) | Activity (RAW264.7 [3]) | Activity (RAW264.7 [4]) | Activity (RAW264.7 [5]) | Activity (RAW264.7 [6]) | Activity (RAW264.7 [7]) | Activity (RAW264.7 [8]) | Activity (RAW264.7 [9]) | Activity (RAW264.7 [10]) | Activity (Mus musculus [11]) | Activity (Mus musculus [12]) | Activity (Mus musculus [13]) | Activity (Mus musculus [14]) | Activity (Mus musculus [15]) | Activity (Mus musculus [16]) [%]
1 | O=C(Nc1ccc(I)cc1)c1ccc([N+](=O)[O-])o1 | Active | Active | Active | Active | Active | Active | Active | Active | Active | Active | Active | Active | Active | Active | Active | –
2 | CC1(C)C(=O)/C(=C\c2cnccn2)C[C@]2(C)[C@H]3CC=C4[C@@H]5C[C@@](C)(C(=O)O)CC[C@]5(C)CC[C@@]4(C)[C@]3(C)CC[C@@H]12 | – | – | – | – | – | – | – | – | – | – | – | – | – | – | – | 59.69
